Data on seven molecules can be found in patent publication US7465848B2, “Zebrafish assay” (priority 2002, dated 2008).

The test system of one data set is zebrafish. Particulars: for effect on zebrafish heart rate (bradycardia) in the initial screen: compound added to medium at 48 hpf, 1, 10, 100 mcg/ml, highest non-lethal concentration, ventricular rate. The procedure: TubingenAB zebrafish embryos were reared in E3 Media (5 mM NaCl, 0.17 mM KCl, 0.33 mM MgCl2, 0.33 mM CaCl2). At 24 hours post fertilization (hpf) the embryos were distributed into 96 well plates, 3-5 embryos per well with […] of E3 supplemented with phenylthiourea at 0.03 g/l to inhibit pigmentation.
DMSO alone was used as a control. HR measurement: 15 second video recordings were obtained from each well using a Nikon TE200 microscope fitted with a computer controlled stage, and a Hamamatsu ORCA-ER camera. One hundred twenty-eight frames with an exposure time of 90 ms were recorded for each video. Digital movies were taken for each well, one from each quadrant. These video clips were stored digitally.
Offline analysis was performed with commercially available imaging software (Metamorph Software, Universal Imaging). The average pixel density was measured for a region of interest over the heart, and these densities were plotted against time. […] The frequency spectrum was plotted and the peak was reported in a spreadsheet. Manual review of both time domain and frequency domain data as well as the peak frequency was performed to ensure the validity of the data. Fast-Fourier Transform was performed to determine HR. […] Each compound was tested at 1, 10, and 100 mcg/ml and the highest, non-lethal concentration chosen for HR effect. A two-tailed Student's t-test was performed to determine statistical significance.

For another data set, the system named is zebrafish KCNH2. The experiment in a line: Zebrafish KCNH2 knock-down with antisense morpholino, heart rate. It counts as in vivo, Danio rerio. As to conditions: about 5 nL injected at the single cell stage. The protocol:
Approximately 5 nL of the morpholino antisense oligonucleotide diluted in Danieau's solution at the concentrations shown were injected into the zebrafish embryo at the single cell stage. The zebrafish KCNH2 morpholino was directed against the splice donor site of the sixth exon of the zebrafish KCNH2 ortholog (5′-[…]-3′; SEQ ID NO:2).

For the molecule `N=C(N)c1ccc(OCCCCCOc2ccc(C(=N)N)cc2)cc1` [pentamadine], the “effect on zebrafish heart rate (bradycardia) in the initial screen” value with zebrafish was “failed to cause bradycardia”.

As for “5′-CCGTCGTACAGGCATGTTGTCCTA-3′ (all phosphorodiamidate morpholino (PMO)) [antisense morpholino]”, the “effect of KCNH2 antisense morpholino on zebrafish heart rate” value is recorded as “elicited bradycardia in a dose-dependent manner” in the data set with zebrafish KCNH2 and “dose-dependent effect on HR” in the data set with zebrafish KCNH2 (listed as antisense morpholino oligonucleotides directed against zebrafish KCNH2).

Turning to `COc1cc(N)c(Cl)cc1C(=O)NC1CCN(CCCOc2ccc(F)cc2)CC1OC` (centres unmarked) [cisapride], in the data set on zebrafish (cisapride in combination with erythromycin (FIG. 2C)), the “change of ED50 on HR for cisapride with increasing doses of erythromycin” value is “ten-fold decrease”.

Regarding `CN/C(=N/CCSCc1nc[nH]c1C)NC#N` [cimetidine], in the data set on zebrafish (in vivo), the “drug-drug interaction on HR, cimetidine and terfenadine” value was “interaction of cimetidine and terfenadine”.

On to `CC[C@H]1OC(=O)[C@H](C)[C@@H](O[C@H]2C[C@@](C)(OC)[C@@H](O)[C@H](C)O2)[C@H](C)[C@@H](O[C@@H]2O[C@H](C)C[C@H](N(C)C)[C@H]2O)[C@](C)(O)C[C@@H](C)C(=O)[C@H](C)[C@@H](O)[C@]1(C)O` [erythromycin], for which the “absorption into the zebrafish embryo” value with zebrafish (in vivo) was “is absorbed”.

As for `CC(=O)N1CCN(c2ccc(OCC3COC(Cn4ccnc4)(c4ccc(Cl)cc4Cl)O3)cc2)CC1` (centres unmarked) [ketoconazole], the “drug-drug interaction on HR, ketoconazole and terfenadine” value with zebrafish (in vivo) is “faithfully reproduced”.

`CCN(CC)CCNC(=O)c1ccc(NC(C)=O)cc1` [N-acetyl-procainamide]: the “effect on zebrafish heart rate (bradycardia) in the initial screen” value in the data set with zebrafish is “failed to cause bradycardia”.
